# Laboratory results: US20100286255A1, “METHOD FOR EXTRACTING SECOISOLARICIRESINOL AND DIHYDROQUERCETIN FROM WOOD” (priority 2007, published 2010)
# What was measured:
# [1] = test system: MCF-7 cells; assay: Proliferation of human breast cancer cells MCF-7 (estrogenic and antiestrogenic activity); assay type: cell-based; details: ethanol test = 100
# Experimental: The comparative study of the proliferation of the human breast cancer cells MCF-7 under the action of estradiol, SECO, and SECO-containing extracts was carried out according to a known method (H. Adlercreutz, Y. Mousavi, “Enterolactone and estradiol inhibit each other's proliferative effect on MCF-7 breast cancer cells in culture,” J. Steroid. Biochem. Mol. Biol. 41: 615-619 (1992)). To estimate the estrogenic activity of the preparations containing SECO, 1 M solutions of the latter in ethanol (the concentration is indicated for SECO present in the solution) were added to the cell culture with achievement of the final 1 μM concentration of SECO. In each experiment on proliferation, 17β-estradiol was used as a positive standard for the estimation of the estrogenic activity and was also added as an ethanolic solution to achieve the final 1 nM concentration. To estimate the antiestrogenic activity, solutions of 17β-estradiol and the tested SECO preparations, among which there were the preparations obtained under the conditions of Examples 6, 7, and 14, were simultaneously added to the cell culture. The cell proliferation was estimated by counting the number of cells with the Coulter counter, and the results obtained are summarized in Table 2. In the test experiment (see entry 1 in Table 2), ethanol without lignan was added. Five measurements were carried out under each type of conditions.
# [2] = test system: Saccharomyces cerevisiae BKM Y-1173; assay: Survival rate of S. cerevisiae cells under the action of hydrogen peroxide (antioxidant activity); assay type: cell-based; details: antioxidant 5 mg/ml (for DHQ + SECO, total concentration of both), 1 h incubation
# Experimental: Antioxidant activity of DHQ, SECO, and their complexes obtained under the conditions of Examples 6 and 7 was studied by a known method (D. J. Jamieson, “Saccharomyces cerevisiae has distinct adaptive responses to both hydrogen peroxide and menadione” J. Bacteriol. 174: 6678-6681 (1992)) on yeast Saccharomyces cerevisiae BKM Y-1173. The yeasts were grown to the mid-logarithmic growth stage on […] medium containing 2% glucose, the yeast extract, and mineral salts. The yeast cells were separated from the medium by centrifugation, two times washed with water, and incubated with hydrogen peroxide and antioxidants in an aqueous suspension (OD600 0.1-0.15) for 1 h with periodic shaking. Then the corresponding dilutions were made, the yeasts were seeded on the agarized glucose-peptone medium and cultivated for […] at 30° C., and the number of grown colonies and the survival rate of S. cerevisiae cells were counted (Table 1).
structure (smiles),measurement,setting,value
"C[C@]12CC[C@@H]3c4ccc(O)cc4CC[C@H]3[C@@H]1CC[C@@H]2O [17β-estradiol, reference compound]","Proliferation of cells MCF-7, %","[1]; positive standard alone, final 1 nM concentration",140 ± 15%
"O=C1c2c(O)cc(O)cc2O[C@H](c2ccc(O)c(O)c2)[C@H]1O [DHQ (Example 13), Dihydroquercetin]","Survival rate, % of test",[2]; 5 mM H2O2,35 ± 5 % of test
same,"Survival rate, % of test",[2]; 10 mM H2O2,9 ± 2 % of test
same,"Survival rate, % of test",[2]; Test (no H2O2),100 % of test
"COc1cc(C[C@@H](CO)[C@H](CO)Cc2ccc(O)c(OC)c2)ccc1O [SECO (Example 14), secoisolariciresinol]","Survival rate, % of test",[2]; 5 mM H2O2,35 ± 5 % of test
same,"Survival rate, % of test",[2]; 10 mM H2O2,9 ± 1 % of test
same,"Survival rate, % of test",[2]; Test (no H2O2),100 % of test
same,"Proliferation of cells MCF-7, %","[1]; antiestrogenic activity, added simultaneously with 17β-estradiol (1 nM), SECO 1 μM",115 ± 10%
same,"Proliferation of cells MCF-7, %","[1]; estrogenic activity, preparation alone, final 1 μM concentration of SECO",115 ± 10%
